In PubChem BioAssay (NCI):
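The compound was tested at five concentrations on cells cultured in 96-well plates, with a 48-hour exposure period. GI50 = concentration required for 50% inhibition of growth. Definition used: TGI = concentration required for complete inhibition of growth.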

Columns and labels:
Assay in all cases: NCI tumour cell line growth inhibition, 48 h
HOP-18 NSCLC = test system: HOP-18 NSCLC
SK-OV-3 ovarian = test system: SK-OV-3 ovarian
LOX IMVI melanoma = test system: LOX IMVI melanoma
MALME-3M melanoma = test system: MALME-3M melanoma
NCI-H522 lung = test system: NCI-H522 lung
SN12C renal = test system: SN12C renal
RXF 393 renal = test system: RXF 393 renal
OVCAR-8 ovarian = test system: OVCAR-8 ovarian
UACC-62 melanoma = test system: UACC-62 melanoma
SR leukemia = test system: SR leukemia
DMS 114 small cell lung = test system: DMS 114 small cell lung
UACC-257 melanoma = test system: UACC-257 melanoma
TK-10 renal = test system: TK-10 renal
NCI-H460 lung = test system: NCI-H460 lung
HOP-62 NSCLC = test system: HOP-62 NSCLC
CCRF-CEM leukemia = test system: CCRF-CEM leukemia
SF-295 CNS = test system: SF-295 CNS
UO-31 renal = test system: UO-31 renal
U251 CNS = test system: U251 CNS
RXF-631 renal = test system: RXF-631 renal
SW-620 colon = test system: SW-620 colon
ACHN renal = test system: ACHN renal
HT29 colon = test system: HT29 colon
HCT-15 colon = test system: HCT-15 colon
OVCAR-5 ovarian = test system: OVCAR-5 ovarian
RPMI-8226 leukemia = test system: RPMI-8226 leukemia
A549 NSCLC = test system: A549 NSCLC
SK-MEL-28 melanoma = test system: SK-MEL-28 melanoma
SNB-78 CNS = test system: SNB-78 CNS
A498 renal = test system: A498 renal
SF-268 CNS = test system: SF-268 CNS
SF-539 CNS = test system: SF-539 CNS
KM20L2 colon = test system: KM20L2 colon
DLD-1 colon = test system: DLD-1 colon
CAKI-1 renal = test system: CAKI-1 renal
HL-60(TB) leukemia = test system: HL-60(TB) leukemia
MOLT-4 leukemia = test system: MOLT-4 leukemia
HCC-2998 colon = test system: HCC-2998 colon
EKVX NSCLC = test system: EKVX NSCLC
OVCAR-3 ovarian = test system: OVCAR-3 ovarian
786-0 renal = test system: 786-0 renal
IGROV1 ovarian = test system: IGROV1 ovarian
SNB-75 CNS = test system: SNB-75 CNS
COLO 205 colon = test system: COLO 205 colon
HCT-116 colon = test system: HCT-116 colon
LXFL 529 NSCLC = test system: LXFL 529 NSCLC
SNB-19 CNS = test system: SNB-19 CNS
M14 melanoma = test system: M14 melanoma
NCI-H226 lung = test system: NCI-H226 lung
HOP-92 NSCLC = test system: HOP-92 NSCLC
M19-MEL melanoma = test system: M19-MEL melanoma
SK-MEL-2 melanoma = test system: SK-MEL-2 melanoma
XF 498 CNS = test system: XF 498 CNS
KM12 colon = test system: KM12 colon
K-562 leukemia = test system: K-562 leukemia
NCI-H23 lung = test system: NCI-H23 lung
SK-MEL-5 melanoma = test system: SK-MEL-5 melanoma
DMS 273 small cell lung = test system: DMS 273 small cell lung
OVCAR-4 ovarian = test system: OVCAR-4 ovarian

Cc1ccccc1-c1c(N)nc(N)nc1C(=O)Nc1nccs1
TGI (HOP-18 NSCLC): > 100 µM
TGI (SK-OV-3 ovarian): > 100 µM
TGI (LOX IMVI melanoma): > 100 µM
TGI (MALME-3M melanoma): > 100 µM
TGI (NCI-H522 lung): > 100 µM
TGI (SN12C renal): > 100 µM
TGI (RXF 393 renal): > 100 µM
TGI (OVCAR-8 ovarian): > 100 µM
TGI (UACC-62 melanoma): > 100 µM
TGI (SR leukemia): > 100 µM
TGI (DMS 114 small cell lung): > 100 µM
TGI (UACC-257 melanoma): > 100 µM
TGI (TK-10 renal): > 100 µM
TGI (NCI-H460 lung): > 100 µM
TGI (HOP-62 NSCLC): > 100 µM
TGI (CCRF-CEM leukemia): > 100 µM
TGI (SF-295 CNS): > 100 µM
TGI (UO-31 renal): > 100 µM
TGI (U251 CNS): > 100 µM
TGI (RXF-631 renal): > 100 µM
TGI (SW-620 colon): > 100 µM
TGI (ACHN renal): > 100 µM
TGI (HT29 colon): > 100 µM
TGI (HCT-15 colon): > 100 µM
TGI (OVCAR-5 ovarian): > 100 µM
TGI (RPMI-8226 leukemia): > 100 µM
TGI (A549 NSCLC): > 100 µM
TGI (SK-MEL-28 melanoma): > 100 µM
TGI (SNB-78 CNS): > 100 µM
TGI (A498 renal): > 100 µM
TGI (SF-268 CNS): > 100 µM
TGI (SF-539 CNS): > 100 µM
TGI (KM20L2 colon): > 100 µM
TGI (DLD-1 colon): > 100 µM
TGI (CAKI-1 renal): > 100 µM
TGI (HL-60(TB) leukemia): > 100 µM
TGI (MOLT-4 leukemia): > 100 µM
TGI (HCC-2998 colon): > 100 µM
TGI (EKVX NSCLC): > 100 µM
TGI (OVCAR-3 ovarian): > 100 µM
TGI (786-0 renal): > 100 µM
TGI (IGROV1 ovarian): > 100 µM
TGI (SNB-75 CNS): > 100 µM
TGI (COLO 205 colon): > 100 µM
TGI (HCT-116 colon): > 100 µM
TGI (LXFL 529 NSCLC): > 100 µM
TGI (SNB-19 CNS): > 100 µM
TGI (M14 melanoma): > 100 µM
TGI (NCI-H226 lung): > 100 µM
TGI (HOP-92 NSCLC): > 100 µM
TGI (M19-MEL melanoma): > 100 µM
TGI (SK-MEL-2 melanoma): > 100 µM
TGI (XF 498 CNS): > 100 µM
TGI (KM12 colon): > 100 µM
TGI (K-562 leukemia): > 100 µM
TGI (NCI-H23 lung): > 100 µM
TGI (SK-MEL-5 melanoma): > 100 µM
TGI (DMS 273 small cell lung): > 100 µM
TGI (OVCAR-4 ovarian): > 100 µM

CCC[CH2][Ge]([CH2]CCC)([CH2]CCC)[O]C(=O)C(O)c1ccccc1 (stereo not given)
GI50 (HOP-18 NSCLC): 18.5 µM
TGI (HOP-18 NSCLC): 51 µM
GI50 (SK-OV-3 ovarian): 9.27 µM
TGI (SK-OV-3 ovarian): 35.6 µM
GI50 (LOX IMVI melanoma): 1.85 µM
TGI (LOX IMVI melanoma): 13.6 µM
GI50 (MALME-3M melanoma): 1.45 µM
TGI (MALME-3M melanoma): 18 µM
GI50 (NCI-H522 lung): 0.411 µM
TGI (NCI-H522 lung): 5.65 µM
GI50 (SN12C renal): 4.58 µM
TGI (SN12C renal): 23.4 µM
TGI (RXF 393 renal): 1.06 µM
GI50 (OVCAR-8 ovarian): 10.6 µM
TGI (OVCAR-8 ovarian): 22.4 µM
GI50 (UACC-62 melanoma): 4.03 µM
TGI (UACC-62 melanoma): 18.1 µM
GI50 (DMS 114 small cell lung): 0.284 µM
TGI (DMS 114 small cell lung): 7.19 µM
GI50 (UACC-257 melanoma): 1.08 µM
TGI (UACC-257 melanoma): 15.5 µM
GI50 (TK-10 renal): 18 µM
TGI (TK-10 renal): > 100 µM
GI50 (NCI-H460 lung): 3.03 µM
TGI (NCI-H460 lung): 34.9 µM
GI50 (HOP-62 NSCLC): 9.67 µM
TGI (HOP-62 NSCLC): 23.4 µM
GI50 (CCRF-CEM leukemia): 0.207 µM
TGI (CCRF-CEM leukemia): 25.7 µM
GI50 (SF-295 CNS): 1.01 µM
TGI (SF-295 CNS): 17.6 µM
GI50 (UO-31 renal): 0.885 µM
TGI (UO-31 renal): 15.8 µM
GI50 (U251 CNS): 2.32 µM
TGI (U251 CNS): 20.3 µM
GI50 (RXF-631 renal): 5.7 µM
TGI (RXF-631 renal): 31.9 µM
GI50 (SW-620 colon): 4.09 µM
TGI (SW-620 colon): 20.4 µM
GI50 (ACHN renal): 4.23 µM
TGI (ACHN renal): 19.8 µM
GI50 (HT29 colon): 3.32 µM
TGI (HT29 colon): 20.8 µM
GI50 (HCT-15 colon): 1.78 µM
TGI (HCT-15 colon): 14.2 µM
GI50 (OVCAR-5 ovarian): 6.27 µM
TGI (OVCAR-5 ovarian): 21.7 µM
GI50 (RPMI-8226 leukemia): 0.641 µM
TGI (RPMI-8226 leukemia): 42.2 µM
GI50 (A549 NSCLC): 2 µM
TGI (A549 NSCLC): 26 µM
GI50 (SK-MEL-28 melanoma): 12.7 µM
TGI (SK-MEL-28 melanoma): 29.8 µM
GI50 (SNB-78 CNS): 3.04 µM
TGI (SNB-78 CNS): 38.8 µM
GI50 (A498 renal): 11.7 µM
TGI (A498 renal): 26.8 µM
GI50 (SF-268 CNS): 6.74 µM
TGI (SF-268 CNS): > 65.1 µM
GI50 (SF-539 CNS): 9.64 µM
TGI (SF-539 CNS): 22.1 µM
GI50 (KM20L2 colon): 2.18 µM
TGI (KM20L2 colon): 22 µM
GI50 (DLD-1 colon): 1.99 µM
TGI (DLD-1 colon): 21.9 µM
GI50 (CAKI-1 renal): 5.9 µM
TGI (CAKI-1 renal): 24.1 µM
TGI (HL-60(TB) leukemia): 4.3 µM
GI50 (MOLT-4 leukemia): 0.602 µM
TGI (MOLT-4 leukemia): > 39.4 µM
GI50 (HCC-2998 colon): 2.69 µM
TGI (HCC-2998 colon): 14.4 µM
GI50 (EKVX NSCLC): 0.309 µM
TGI (EKVX NSCLC): 15 µM
GI50 (OVCAR-3 ovarian): 1.35 µM
TGI (OVCAR-3 ovarian): 18.4 µM
GI50 (786-0 renal): 7.41 µM
TGI (786-0 renal): 23.2 µM
GI50 (IGROV1 ovarian): 9.44 µM
TGI (IGROV1 ovarian): 30.6 µM
GI50 (SNB-75 CNS): 4.51 µM
TGI (SNB-75 CNS): > 100 µM
GI50 (COLO 205 colon): 2.33 µM
TGI (COLO 205 colon): 12 µM
GI50 (HCT-116 colon): 0.571 µM
TGI (HCT-116 colon): 13.8 µM
GI50 (LXFL 529 NSCLC): 1.29 µM
TGI (LXFL 529 NSCLC): 21.4 µM
GI50 (SNB-19 CNS): 18.5 µM
TGI (SNB-19 CNS): > 63.7 µM
GI50 (M14 melanoma): 2.51 µM
TGI (M14 melanoma): 12 µM
GI50 (NCI-H226 lung): 1.2 µM
TGI (NCI-H226 lung): 27.9 µM
GI50 (HOP-92 NSCLC): 0.49 µM
TGI (HOP-92 NSCLC): 15.8 µM
GI50 (M19-MEL melanoma): 8.65 µM
TGI (M19-MEL melanoma): 22.3 µM
TGI (XF 498 CNS): 4.92 µM
GI50 (KM12 colon): 2.96 µM
TGI (KM12 colon): 17.4 µM
GI50 (K-562 leukemia): 0.443 µM
TGI (K-562 leukemia): 19.9 µM
GI50 (NCI-H23 lung): 0.366 µM
TGI (NCI-H23 lung): 9.91 µM
GI50 (SK-MEL-5 melanoma): 1.46 µM
TGI (SK-MEL-5 melanoma): 13.2 µM
GI50 (DMS 273 small cell lung): 1.2 µM
TGI (DMS 273 small cell lung): 11.9 µM
GI50 (OVCAR-4 ovarian): 0.794 µM
TGI (OVCAR-4 ovarian): 29 µM
